Test results: patent publication US20260102501A1, “ANTI-CANCER NUCLEAR HORMONE RECEPTOR-TARGETING COMPOUNDS” (Nuvation Bio Inc., priority 2022, published 2026)
Positions count from the first letter of the chain named.

Experiments:
[1] = biological target: T1, full-length androgen receptor (HEK293 cells stably expressing) (Homo sapiens, UniProt P10275); test: AR antagonism assay (luciferase reporter)
T1 sequence (P10275 1-920): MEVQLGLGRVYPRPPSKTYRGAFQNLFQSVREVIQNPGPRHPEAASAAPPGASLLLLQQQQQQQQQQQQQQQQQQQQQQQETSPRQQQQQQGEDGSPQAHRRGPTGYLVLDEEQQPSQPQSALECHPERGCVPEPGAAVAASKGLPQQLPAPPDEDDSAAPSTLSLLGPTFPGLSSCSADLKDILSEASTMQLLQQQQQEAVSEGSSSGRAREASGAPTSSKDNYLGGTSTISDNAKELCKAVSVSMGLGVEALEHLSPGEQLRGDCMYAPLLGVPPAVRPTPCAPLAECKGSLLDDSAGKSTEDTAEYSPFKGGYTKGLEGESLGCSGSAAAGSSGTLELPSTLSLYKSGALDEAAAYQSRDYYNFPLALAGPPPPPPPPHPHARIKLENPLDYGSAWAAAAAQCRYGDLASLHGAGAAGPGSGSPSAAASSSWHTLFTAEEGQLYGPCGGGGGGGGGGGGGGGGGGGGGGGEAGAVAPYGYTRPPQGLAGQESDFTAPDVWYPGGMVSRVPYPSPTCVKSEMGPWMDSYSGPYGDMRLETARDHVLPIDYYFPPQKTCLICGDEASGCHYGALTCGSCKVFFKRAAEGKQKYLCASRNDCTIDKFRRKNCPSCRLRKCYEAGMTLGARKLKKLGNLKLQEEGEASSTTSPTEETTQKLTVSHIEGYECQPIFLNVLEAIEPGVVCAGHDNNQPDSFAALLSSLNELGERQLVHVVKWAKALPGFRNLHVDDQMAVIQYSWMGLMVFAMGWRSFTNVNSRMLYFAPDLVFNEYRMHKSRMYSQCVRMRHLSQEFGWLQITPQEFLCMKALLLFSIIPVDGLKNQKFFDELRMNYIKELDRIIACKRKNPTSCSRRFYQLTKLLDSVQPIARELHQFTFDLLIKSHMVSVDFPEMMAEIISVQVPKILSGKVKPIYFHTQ
Method: AR antagonism assay: To evaluate AR antagonist activity, test compound was added to the assay plate (top dose 10 μM, 3 fold serial dilution, 10 point dose response). HEK293 cells stably expressing the full-length androgen receptor were seeded at a density of 20000 cells/well in the assay plate. The assay plate was then incubated at room temperature for 10 minutes and at 37° C. 5% CO2 for 20 minutes. Testosterone was added to the assay plate at 1 nM final concentration and the assay plate incubated at 37° C., 5% CO2 for 20 h. […] Steady-glo was added to the assay plate and mixed at room temperature for 20 minutes on an orbital shaker, before reading out on the En Vision plate reader.

[2] = test system: LNCap cells; test: Cell viability assay (CellTiterGlo); format: cell-based; settings: Homo sapiens, 144 h, read-out: LNCap (IC50, nM)
[3] = biological target: T2, GR (cytosol from IM-9 cells) (Homo sapiens, UniProt P04150); test: GR binding assay (3H-Dexamethasone displacement)
T2 sequence (P04150 1-777): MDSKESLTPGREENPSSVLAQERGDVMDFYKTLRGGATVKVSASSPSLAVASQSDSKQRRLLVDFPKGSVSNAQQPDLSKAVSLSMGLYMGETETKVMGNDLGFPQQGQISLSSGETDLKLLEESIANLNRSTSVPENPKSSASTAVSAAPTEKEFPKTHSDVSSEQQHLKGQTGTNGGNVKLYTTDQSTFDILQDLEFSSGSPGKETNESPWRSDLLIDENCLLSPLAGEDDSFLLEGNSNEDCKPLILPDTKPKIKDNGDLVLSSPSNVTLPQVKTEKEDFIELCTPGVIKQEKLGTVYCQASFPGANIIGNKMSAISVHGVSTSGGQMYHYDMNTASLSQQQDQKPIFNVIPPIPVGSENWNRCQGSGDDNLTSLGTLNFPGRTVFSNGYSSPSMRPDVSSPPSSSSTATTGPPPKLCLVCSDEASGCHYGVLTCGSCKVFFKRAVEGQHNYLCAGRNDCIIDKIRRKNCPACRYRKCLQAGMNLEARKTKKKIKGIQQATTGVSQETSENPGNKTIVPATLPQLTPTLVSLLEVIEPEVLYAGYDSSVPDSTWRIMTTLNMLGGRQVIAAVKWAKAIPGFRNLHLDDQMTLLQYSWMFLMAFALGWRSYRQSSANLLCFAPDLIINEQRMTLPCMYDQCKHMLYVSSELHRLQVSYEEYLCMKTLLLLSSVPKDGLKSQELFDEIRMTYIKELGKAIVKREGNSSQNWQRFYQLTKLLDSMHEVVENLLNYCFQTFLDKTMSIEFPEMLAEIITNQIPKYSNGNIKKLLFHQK

[4] = test system: T47D cells; test: Cell viability assay (CellTiterGlo); format: cell-based; settings: Homo sapiens, 144 h, read-out: T47D (IC50, nM)
[5] = biological target: T3, AR (cytosol from LnCaP cells) (Homo sapiens, UniProt P10275, T878A); test: AR binding assay (3H-R1881 displacement)
T3 sequence (P10275 1-920 T878A): T1 sequence (P10275 1-920) with T878A
Method: The plate was then centrifuged at 3000 rpm for 30 minutes at 4° C.

[6] = test system: IEC6 cells; test: Cell viability assay (CellTiterGlo); settings: Rattus norvegicus, IEC-6, 144 h, read-out: IEC-6 (IC50, nM)
[7] = biological target: T4, ligand binding domain of the glucocorticoid receptor (HEK293 cells stably expressing) (Homo sapiens, UniProt P04150); test: GR antagonism assay (luciferase reporter)
T4 sequence (P04150 524-758 limits assumed): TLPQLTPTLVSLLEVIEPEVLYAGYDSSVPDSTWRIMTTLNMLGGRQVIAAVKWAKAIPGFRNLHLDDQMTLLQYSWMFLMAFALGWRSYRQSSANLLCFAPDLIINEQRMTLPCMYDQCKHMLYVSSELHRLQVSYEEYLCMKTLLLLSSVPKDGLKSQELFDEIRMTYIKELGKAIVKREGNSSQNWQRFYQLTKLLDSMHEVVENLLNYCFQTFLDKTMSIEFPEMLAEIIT

SMILES | IC50 [1] [nM] | IC50 [2] [nM] | IC50 [3] [nM] | IC50 [4] [nM] | IC50 [5] [nM] | IC50 [6] [nM] | IC50 [7] [nM]
CC[C@@]1(O)C(=O)OCc2c1cc1n(c2=O)Cc2cc3c(CN(C)C)c(OC(=O)N4CCN(CCCCCCNc5ccc([C@H]6C[C@@]7(C)[C@@H](CC[C@]7(OC(C)=O)C(C)=O)[C@@H]7CCC8=CC(=O)CCC8=C76)cc5)CC4)ccc3nc2-1 [Compound No. 61, (S)-10-((dimethylamino)methyl)-4-ethyl-4-hydroxy-3,14-dioxo-3,4,12,14-tetrahydro-1H-pyrano[3′,4′:6,7]indolizino[1,2-b]quinolin-9-yl 4-(6-((4-((8S,11R,13S,14S,17R)-17-acetoxy-17-acetyl-13-methyl-3-oxo-2,3,6,7,8,11,12,13,14,15,16,17-dodecahydro-1H-cyclopenta[a]phenanthren-11-yl)phenyl)amino)hexyl)piperazine-1-carboxylate] | 101 to 1000 | 101 to 1000 | < 10 | 10 to 100 | 10 to 100 |  | 
CC[C@@]1(O)C(=O)OCc2c1cc1n(c2=O)Cc2c-1nc1cc(F)c(C)c3c1c2[C@@H](NC(=O)OCc1ccc(NC(=O)[C@H](CCCNC(N)=O)NC(=O)[C@@H](NCCCCCCN(C)c2ccc([C@H]4C[C@@]5(C)[C@@H](CC[C@]5(OC(C)=O)C(C)=O)[C@@H]5CCC6=CC(=O)CCC6=C54)cc2)C(C)C)cc1)CC3 [Compound 59] | 101 to 1000 | 10 to 100 | 10 to 100 | 10 to 100 | 101 to 1000 |  | 
CC[C@@]1(O)C(=O)OCc2c1cc1n(c2=O)Cc2cc3c(CN(C)C)c(OC(=O)N(C)Cc4ccc(NC(=O)[C@H](CCCNC(N)=O)NC(=O)[C@@H](NCCCCCCN(C)c5ccc([C@H]6C[C@@]7(C)[C@@H](CC[C@]7(OC(C)=O)C(C)=O)[C@@H]7CCC8=CC(=O)CCC8=C76)cc5)C(C)C)cc4)ccc3nc2-1 [Compound No. 60] | > 1000 | > 1000 | < 10 | > 1000 | 10 to 100 |  | 
CC#C[C@]1(O)CC[C@H]2[C@@H]3CCC4=CC(=O)CCC4=C3[C@@H](c3ccc(N(C)CCCCCCN4CCN(C(=O)Oc5ccc6nc7c(cc6c5CN(C)C)Cn5c-7cc6c(c5=O)COC(=O)[C@]6(O)CC)CC4)cc3)C[C@@]21C [Compound 29, (S)-10-((Dimethylamino)methyl)-4-ethyl-4-hydroxy-3,14-dioxo-3,4,12,14-tetrahydro-1H-pyrano[3′,4′:6,7]indolizino[1,2-b]quinolin-9-yl 4-(6-((4-((8S,11R,13S,14S,17S)-17-hydroxy-13-methyl-3-oxo-17-(prop-1-yn-1-yl)-2,3,6,7,8,11,12,13,14,15,16,17-dodecahydro-1H-cyclopenta[a]phenanthren-11-yl)phenyl)(methyl)amino)hexyl)piperazine-1-carboxylate] |  | 10 to 100 | < 10 | 10 to 100 |  | 101 to 1000 | < 10
